Key:
[1] = biological target: T1, HiBit-BRM fusion protein (Homo sapiens, UniProt P51531); assay: HiBiT-BRM cell-based degradation assay (Nano-Glo HiBiT Lytic Detection, 24 h); conditions: stable HeLa cell line expressing HiBiT-BRM; for DC50: read-out: BRM HiBit Degradation IC50
T1 construct: expressed in transfected cells
Summary of the method: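 Luminescence from LgBiT complementation after lysis measured HiBiT-BRM levels in stably expressing HeLa cells. Compounds were dosed at up to 30 μM final, in 3-fold 10-point dilutions, for 24 h. Percent degradation was scaled between DMSO wells and wells treated with 2 μM standard BRM/BRG1 degrader.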

[2] = biological target: T2, HiBit-BRG1 fusion protein (Homo sapiens, UniProt P51532); assay: HiBiT-BRG1 cell-based degradation assay (Nano-Glo HiBiT Lytic Detection, 24 h); conditions: stable HeLa cell line expressing HiBit-BRG1 and LgBit; for Dmax: read-out: BRG1 HiBit Degradation Maximum (%); for DC50: read-out: BRMG1 HiBit Degradation IC50
T2 construct: expressed in transfected cells
Summary of the method: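 Degradation read by lytic NanoBiT luminescence after 24 h compound exposure of a stable HiBit-BRG1/LgBit HeLa line. Ten-point, 3-fold series in duplicate, top final dose 30 μM; DMSO and 2 μM standard degrader define 0% and 100% degradation.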

T2 sequence (P51532 whole entry, the tested form may be a part): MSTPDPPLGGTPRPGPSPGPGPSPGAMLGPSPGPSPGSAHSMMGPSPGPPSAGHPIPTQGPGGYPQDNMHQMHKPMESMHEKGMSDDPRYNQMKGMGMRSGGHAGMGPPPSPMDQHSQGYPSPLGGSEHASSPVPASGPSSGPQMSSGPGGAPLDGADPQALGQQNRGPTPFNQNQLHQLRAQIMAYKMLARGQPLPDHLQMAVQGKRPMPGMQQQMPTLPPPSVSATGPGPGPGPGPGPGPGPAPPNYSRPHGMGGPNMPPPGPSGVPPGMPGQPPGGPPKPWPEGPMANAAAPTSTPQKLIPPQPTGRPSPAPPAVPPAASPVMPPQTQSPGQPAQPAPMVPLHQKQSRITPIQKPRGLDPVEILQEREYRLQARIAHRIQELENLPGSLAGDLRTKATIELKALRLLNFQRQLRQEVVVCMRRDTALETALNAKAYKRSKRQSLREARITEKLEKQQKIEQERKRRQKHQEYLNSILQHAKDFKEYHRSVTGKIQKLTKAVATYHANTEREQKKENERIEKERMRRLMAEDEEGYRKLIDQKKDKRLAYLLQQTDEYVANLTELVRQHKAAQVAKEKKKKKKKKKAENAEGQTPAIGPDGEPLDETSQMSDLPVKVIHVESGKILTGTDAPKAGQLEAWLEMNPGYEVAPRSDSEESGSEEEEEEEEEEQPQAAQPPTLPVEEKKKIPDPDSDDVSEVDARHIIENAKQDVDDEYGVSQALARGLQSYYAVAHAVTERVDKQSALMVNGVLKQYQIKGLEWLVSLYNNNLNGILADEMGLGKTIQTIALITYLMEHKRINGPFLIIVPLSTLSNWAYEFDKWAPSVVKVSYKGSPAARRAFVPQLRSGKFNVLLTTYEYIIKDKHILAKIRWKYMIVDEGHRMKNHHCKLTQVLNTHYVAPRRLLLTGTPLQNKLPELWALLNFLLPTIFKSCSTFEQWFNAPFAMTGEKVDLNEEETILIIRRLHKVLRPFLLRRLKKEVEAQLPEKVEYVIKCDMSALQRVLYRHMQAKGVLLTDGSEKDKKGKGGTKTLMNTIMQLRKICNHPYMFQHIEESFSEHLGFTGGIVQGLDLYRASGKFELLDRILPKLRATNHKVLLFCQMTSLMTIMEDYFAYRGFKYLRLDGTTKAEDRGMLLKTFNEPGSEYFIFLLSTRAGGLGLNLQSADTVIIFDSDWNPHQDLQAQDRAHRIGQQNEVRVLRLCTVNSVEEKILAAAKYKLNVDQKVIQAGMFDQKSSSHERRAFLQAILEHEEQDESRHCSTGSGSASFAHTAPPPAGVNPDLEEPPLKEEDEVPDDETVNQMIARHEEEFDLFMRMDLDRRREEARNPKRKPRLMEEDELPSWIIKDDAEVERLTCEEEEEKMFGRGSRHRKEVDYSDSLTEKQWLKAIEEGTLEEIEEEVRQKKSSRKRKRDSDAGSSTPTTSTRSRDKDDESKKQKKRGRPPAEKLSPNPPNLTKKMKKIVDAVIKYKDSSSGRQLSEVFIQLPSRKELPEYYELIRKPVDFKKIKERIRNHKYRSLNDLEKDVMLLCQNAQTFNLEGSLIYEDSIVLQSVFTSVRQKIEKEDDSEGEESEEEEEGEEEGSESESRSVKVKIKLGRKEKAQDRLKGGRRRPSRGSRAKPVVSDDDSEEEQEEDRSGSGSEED
T1 sequence (P51531 whole entry, the tested form may be a part): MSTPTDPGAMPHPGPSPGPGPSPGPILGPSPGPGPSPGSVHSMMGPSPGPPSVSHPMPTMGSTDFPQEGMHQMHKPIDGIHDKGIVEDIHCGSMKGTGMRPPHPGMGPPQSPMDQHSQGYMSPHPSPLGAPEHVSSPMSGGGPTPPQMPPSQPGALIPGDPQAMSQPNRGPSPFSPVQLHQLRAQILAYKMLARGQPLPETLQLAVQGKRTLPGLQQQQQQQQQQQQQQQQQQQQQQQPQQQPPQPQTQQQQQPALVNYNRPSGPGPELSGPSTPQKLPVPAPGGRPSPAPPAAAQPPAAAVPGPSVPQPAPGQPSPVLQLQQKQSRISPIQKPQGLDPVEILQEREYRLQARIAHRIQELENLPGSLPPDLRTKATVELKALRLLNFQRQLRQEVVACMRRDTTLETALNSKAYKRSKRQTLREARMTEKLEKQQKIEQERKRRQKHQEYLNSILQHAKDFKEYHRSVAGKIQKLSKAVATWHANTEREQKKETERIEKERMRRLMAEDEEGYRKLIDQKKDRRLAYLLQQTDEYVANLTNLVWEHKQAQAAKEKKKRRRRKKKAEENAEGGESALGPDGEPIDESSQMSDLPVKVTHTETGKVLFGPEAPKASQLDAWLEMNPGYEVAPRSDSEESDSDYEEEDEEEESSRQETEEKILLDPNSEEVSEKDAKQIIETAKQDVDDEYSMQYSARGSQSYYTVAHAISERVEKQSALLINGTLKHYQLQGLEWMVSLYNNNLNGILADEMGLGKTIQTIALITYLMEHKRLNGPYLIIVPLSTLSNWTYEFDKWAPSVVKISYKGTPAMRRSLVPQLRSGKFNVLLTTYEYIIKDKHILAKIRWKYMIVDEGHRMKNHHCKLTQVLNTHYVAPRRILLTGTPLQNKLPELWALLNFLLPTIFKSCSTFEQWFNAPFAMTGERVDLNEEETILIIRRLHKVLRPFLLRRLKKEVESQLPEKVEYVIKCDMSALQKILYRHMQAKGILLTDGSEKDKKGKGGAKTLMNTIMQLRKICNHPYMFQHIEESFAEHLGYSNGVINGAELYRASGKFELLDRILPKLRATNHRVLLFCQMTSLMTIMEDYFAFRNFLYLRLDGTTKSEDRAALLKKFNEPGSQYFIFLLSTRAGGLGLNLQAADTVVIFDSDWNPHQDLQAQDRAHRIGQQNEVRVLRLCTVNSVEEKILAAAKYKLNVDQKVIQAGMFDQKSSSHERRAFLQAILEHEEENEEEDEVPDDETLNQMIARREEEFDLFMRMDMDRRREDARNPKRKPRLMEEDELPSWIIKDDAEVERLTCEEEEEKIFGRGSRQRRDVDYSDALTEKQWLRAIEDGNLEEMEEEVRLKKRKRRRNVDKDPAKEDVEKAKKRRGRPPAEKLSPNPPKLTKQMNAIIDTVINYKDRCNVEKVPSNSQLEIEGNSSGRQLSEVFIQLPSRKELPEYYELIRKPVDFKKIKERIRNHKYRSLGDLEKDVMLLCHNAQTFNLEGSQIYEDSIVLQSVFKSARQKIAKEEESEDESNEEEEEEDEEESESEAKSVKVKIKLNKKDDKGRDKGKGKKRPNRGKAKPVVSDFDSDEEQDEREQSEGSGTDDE

Structure (SMILES)	DC50 [1]	Dmax [2]	DC50 [2]	BRM HiBit Degradation Maximum (%) [1]
Cc1ncsc1-c1ccc([C@H](C)NC(=O)[C@@H]2C[C@@H](O)CN2C(=O)[C@@H](c2cc(-c3cnc(N4C[C@@H]5[C@H](C4)[C@H]5c4sc5nnc(-c6ccccc6O)cc5c4C)nc3)no2)C(C)C)cc1 (stereo in doubt) [Compound 40, (2S,4R)-4-hydroxy-1-((R)-2-(3-(2-((1R,5R)-6-(3-(2-hydroxyphenyl)-5-methylthieno[2,3-c]pyridazin-6-yl)-3-azabicyclo[3.1.0]hexan-3-yl)pyrimidin-5-yl)isoxazol-5-yl)-3-methylbutanoyl)-N-((S)-1-(4-(4-methylthiazol-5-yl)phenyl)ethyl)pyrrolidine-2-carboxamide]	< 10 nM	< 50%	> 100 nM	A (“A” indicates maximum degradation ≥75%)
Cc1ncsc1-c1ccc([C@H](C)NC(=O)[C@@H]2C[C@@H](O)CN2C(=O)[C@@H](c2cc(N3CC[C@H](c4cc5nnc(-c6ccccc6O)cc5s4)C3)no2)C(C)C)cc1 [Compound 73, (2S,4R)-4-hydroxy-1-((R)-2-(3-((S)-3-(3-(2-hydroxyphenyl)thieno[3,2-c]pyridazin-6-yl)pyrrolidin-1-yl)isoxazol-5-yl)-3-methylbutanoyl)-N-((S)-1-(4-(4-methylthiazol-5-yl)phenyl)ethyl)pyrrolidine-2-carboxamide]	< 10 nM	< 50%		A (“A” indicates maximum degradation ≥75%)
Cc1ncsc1-c1ccc([C@H](C)NC(=O)[C@@H]2C[C@@H](O)CN2C(=O)[C@@H](c2cc(N3CCC(c4cnc(N5CCC(c6sc7nnc(-c8ccccc8O)cc7c6C)CC5)nc4)CC3)no2)C(C)C)cc1 (single isomer, unassigned) [Compound 60]	< 10 nM	> 50%	> 10 nM	A (“A” indicates maximum degradation ≥75%)

Continued, in another order:

DC50 [1]	Dmax [2]	DC50 [2]	Structure (SMILES)	BRM HiBit Degradation Maximum (%) [1]
< 10 nM	< 50%		Cc1ncsc1-c1ccc([C@H](C)NC(=O)[C@@H]2C[C@@H](O)CN2C(=O)[C@@H](c2cc(-c3cnc(N4CC[C@H](c5sc6nnc(-c7ccccc7O)cc6c5C5CC5)C4)nc3)no2)C(C)C)cc1 [Compound 76, (2S,4R)-1-((R)-2-(3-(2-((S)-3-(5-cyclopropyl-3-(2-hydroxyphenyl)thieno[2,3-c]pyridazin-6-yl)pyrrolidin-1-yl)pyrimidin-5-yl)isoxazol-5-yl)-3-methylbutanoyl)-4-hydroxy-N-((S)-1-(4-(4-methylthiazol-5-yl)phenyl)ethyl)pyrrolidine-2-carboxamide]	A (“A” indicates maximum degradation ≥75%)
< 10 nM	< 50%		Cc1ncsc1-c1ccc([C@H](C)NC(=O)[C@@H]2C[C@@H](O)CN2C(=O)[C@@H](c2cc(N3C[C@@H]4[C@H](C3)[C@H]4c3cc4nnc(-c5ccccc5O)cc4s3)no2)C(C)C)cc1 [Compound 70, (2S,4R)-4-hydroxy-1-((2R)-2-(3-((1R,5S)-6-(3-(2-hydroxyphenyl)thieno[3,2-c]pyridazin-6-yl)-3-azabicyclo[3.1.0]hexan-3-yl)isoxazol-5-yl)-3-methylbutanoyl)-N-((S)-1-(4-(4-methylthiazol-5-yl)phenyl)ethyl)pyrrolidine-2-carboxamide]	B (“B” indicates maximum degradation ≥50%)
< 10 nM	> 50%	> 100 nM	Cc1ncsc1-c1ccc([C@H](C)NC(=O)[C@@H]2C[C@@H](O)CN2C(=O)[C@@H](c2cc(N3CCC4(CC3)CC(c3cc5nnc(-c6ccccc6O)cc5s3)C4)no2)C(C)C)cc1 [Compound 12, (2S,4R)-4-hydroxy-1-((R)-2-(3-(2-(3-(2-hydroxyphenyl)thieno[3,2-c]pyridazin-6-yl)-7-azaspiro[3.5]nonan-7-yl)isoxazol-5-yl)-3-methylbutanoyl)-N—((S)-1-(4-(4-methylthiazol-5-yl)phenyl)ethyl)pyrrolidine-2-carboxamide]	A (“A” indicates maximum degradation ≥75%)
